Data on 3 molecules can be found in US12551484B2, “Methods of treatment and/or prevention of major adverse cardiovascular events (MACE) with a combination of a BET bromodomain inhibitor and a sodium dependent glucose transport 2 inhibitor” (Resverlogix Corp., priority 2019, dated 2026).

Molecules are shown by their SMILES. Like-named read-outs stand apart in the source and are kept apart here.

Assay [1] has as its system type 2 diabetes patients. To be noted: human, in vivo; cited from earlier work.
For assay [2], the system named is type 2 diabetes patients with low HDL cholesterol and a recent acute coronary syndrome (ACS). The assay is described as follows: BETonMACE Phase 3 trial (NCT02586155), post-hoc analysis by SGLT2 inhibitor use.
Description: All patients received high intensity statin treatment as well as other evidence-based treatments.
Patients (n=2425) with ACS in the preceding 7 to 90 days, with type 2 diabetes and low HDL cholesterol (≤40 mg/dl for men, 45 mg/dl for women), receiving intensive or maximum-tolerated therapy with atorvastatin or rosuvastatin, were assigned in double-blind fashion to receive apabetalone 100 mg orally twice daily or matching placebo. […] The primary efficacy measure is time to first occurrence of cardiovascular death, non-fatal myocardial infarction, or stroke.
Those patients who received at least one dose of SGLT2 treatment after the date of the first incidence of event were censored as non-MACE events and the date of last contact was used as the censoring date.
The distributions of the endpoints within the apabetalone and placebo groups were compared using a two-sided log-rank test (LRT) with an alpha=0.05 level of significance. The cumulative incidence is shown as 1-KM (Kaplan-Meier) estimate for event rate.
In assay [3] the test system is type 2 diabetes patients. The settings on record: cited from earlier work.
Setting [4] is: cardiovascular death, non-fatal myocardial infarction, or stroke, FIGS. 1-2.
The mark [5] stands for this setting: patients not treated with SGLT2 inhibitor, vs placebo (FIG. 2).
Setting [6] is: patients not treated with SGLT2 inhibitor, vs placebo (FIG. 5).
Where [7] appears, read: patients not treated with SGLT2 inhibitor, vs placebo (FIG. 8).
Where [8] appears, read: patients not treated with SGLT2 inhibitor, vs placebo (FIG. 11).
Where [9] appears, read: patients not treated with SGLT2 inhibitor, vs placebo (FIG. 14).
Setting [10] is: patients not treated with SGLT2 inhibitor, vs placebo (FIG. 17).

For `Cc1ccc([C@@H]2O[C@H](CO)[C@@H](O)[C@H](O)[C@H]2O)cc1Cc1ccc(-c2ccc(F)cc2)s1` [Canaglifozin, canagliflozin], in the assay with type 2 diabetes patients [1], the “HR, narrowly defined MACE” value was 0.86; the “reduction of narrowly defined MACE” value is 14%; the “reductions in the individual MACE events” value was “did not reach statistical significance”.

For the molecule `COc1cc(OC)c2c(=O)[nH]c(-c3cc(C)c(OCCO)c(C)c3)nc2c1` [apabetalone, 2-(4-(2-hydroxyethoxy)-3,5-dimethylphenyl)-5,7-dimethoxyquinazolin-4(3H)-one], in assay [2] (at 18 months, FIGS. 1-2), the “Kaplan-Meier estimated event rate, narrowly defined MACE” value was 8.0%. In addition, in assay [2] (setting [4]), the “primary end points (narrowly defined MACE), number in group” value stood at 111 and the “primary end points (narrowly defined MACE), percent of group” value is on record as 10.5%. Further, in assay [2] (setting [5]), the “Hazard Ratio [HR], narrowly defined MACE” value is listed as 0.84 and the “reduction of number of patients having a narrowly defined MACE event at any given time” value came to 16%. In assay [2] (setting [6]), the “Hazard Ratio [HR], broadly defined MACE” value was 0.87 and the “reduction of number of patients having a broadly defined MACE event at any given time” value is on record as 13%. Moreover, in assay [2] (setting [7]), the “Hazard Ratio [HR], non-fatal myocardial infarction” value stood at 0.85 and the “reduction of number of patients having a non-fatal myocardial infarction event at any given time” value is 15%. Besides, in assay [2] (setting [8]), the “Hazard Ratio [HR], cardiovascular death” value is listed as 0.84 and the “reduction of number of patients having a cardiovascular death event at any given time” value came to 16%. In assay [2] (setting [9]), the “Hazard Ratio [HR], hospitalization for cardiovascular diseases” value worked out at 0.87 and the “reduction of number of patients having a hospitalization for cardiovascular diseases event at any given time” value is given as 13%. Further, in assay [2] (setting [10]), the “Hazard Ratio [HR], hospitalization for congestive heart failure” value was 0.61 and the “reduction of number of patients having a hospitalization for congestive heart failure event at any given time” value stood at 39%.

In the case of `OC[C@H]1O[C@@H](c2ccc(Cl)c(Cc3ccc(O[C@H]4CCOC4)cc3)c2)[C@H](O)[C@@H](O)[C@@H]1O` [empaglifozin, empagliflozin], in the assay with type 2 diabetes patients [3] (human, in vivo), the “HR, broadly defined MACE” value was 0.89; the “HR, cardiovascular deaths” value was 0.62; the “Hazard Ratio [HR], narrowly defined MACE” value is recorded as 0.86; the “reduction of broadly defined MACE” value is recorded as 11%. In addition, in the assay on type 2 diabetes patients [3] (human, in vivo), the “reduction of narrowly defined MACE” value is reported as 14%. In addition, the “HR, individual MACE events” value in the assay with type 2 diabetes patients [3] (with the exception of cardiovascular deaths, did not show any reduction) is recorded as 1.0.
